Assay results as given in patent US20090163490A1, “Pyrrolopyrimidine Derivatives Used As HSP90 Inhibitors” (VERNALIS (R&D) LTD., priority 2006, published 2009).

Target: T1, human full-length HSP90 (Homo sapiens, UniProt P08238)
T1 construct: E. coli expressed human full-length HSP90 protein, purified >95%; made in house; host or cells: E. coli
Assay: Fluorescence polarization (FP) binding assay
Settings: competitive displacement of fluorescein-labelled probe from human full-length HSP90; activity range; read-out: ACTIVITY* (Activity in the FP binding assay)
Source text: Fluorescence Polarization Assay
Fluorescence polarization {also known as fluorescence anisotropy} measures the rotation of a fluorescing species in solution, where the larger molecule the more polarized the fluorescence emission. When the fluorophore is excited with polarized light, the emitted light is also polarized. The molecular size is proportional to the polarization of the fluorescence emission.
The fluoroscein-labelled probe—
binds to HSP90 {full-length human, full-length yeast or N-terminal domain HSP90} and the anisotropy {rotation of the probe:protein complex} is measured.
Test compound is added to the assay plate, left to equilibrate and the anisotropy measured again. Any change in anisotropy is due to competitive binding of compound to HSP90, thereby releasing probe.
Stored at room temperature. • 3) BSA (bovine serum albumen) 10 mg/ml (New England Biolabs # B9001S) • 4) 20 mM probe in 100% DMSO stock concentration. Stored in the dark at RT. Working concentration is 200 nM diluted in AR water and stored at 4° C.
• 1) Add 100 μl×buffer to wells 1A and 12A(=FP BLNK) • 2) Prepare assay mix—all reagents are kept on ice with a lid on the bucket as the probe is light-sensitive.
• 3) Aliquot 100 μl assay mix to all other wells • 4) Seal plate and leave in dark at room temp for 20 minutes to equilibrate
This gives 2.5 mM {50×} stock cpd−assuming cpds 20 mM. • 4) Repeat for wells A2 to A10. Control in columns 11 and 12. • 5) Transfer 5 μl from row A to row B—not column 12. Mix well. • 6) Transfer 5 μl from row B to row C. […] Add 2 μl of 100 mM standard cpd to wells B12-H12 {is positive control} • 13) The Z′ factor is calculated from zero controls and positive wells.

T1 sequence (P08238 whole entry): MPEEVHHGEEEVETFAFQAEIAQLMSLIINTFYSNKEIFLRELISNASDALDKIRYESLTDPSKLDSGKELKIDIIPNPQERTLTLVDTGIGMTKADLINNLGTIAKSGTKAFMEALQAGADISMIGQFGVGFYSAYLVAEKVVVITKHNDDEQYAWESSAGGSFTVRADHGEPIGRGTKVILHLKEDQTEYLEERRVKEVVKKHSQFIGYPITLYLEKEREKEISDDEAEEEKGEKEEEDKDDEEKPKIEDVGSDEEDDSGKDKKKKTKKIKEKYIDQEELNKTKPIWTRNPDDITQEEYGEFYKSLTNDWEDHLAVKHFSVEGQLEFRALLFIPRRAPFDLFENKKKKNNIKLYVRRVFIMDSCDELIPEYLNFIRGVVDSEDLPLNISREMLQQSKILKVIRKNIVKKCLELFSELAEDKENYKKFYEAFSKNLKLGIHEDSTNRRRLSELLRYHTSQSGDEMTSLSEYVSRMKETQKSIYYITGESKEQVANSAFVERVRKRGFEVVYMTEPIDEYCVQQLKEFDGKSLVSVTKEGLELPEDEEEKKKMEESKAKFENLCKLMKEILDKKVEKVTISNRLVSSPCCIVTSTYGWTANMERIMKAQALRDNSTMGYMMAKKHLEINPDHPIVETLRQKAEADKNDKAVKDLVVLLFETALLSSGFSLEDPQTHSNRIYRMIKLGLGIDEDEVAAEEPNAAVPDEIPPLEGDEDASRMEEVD

| SMILES | IC50 [nM] |
| --- | --- |
| CCOC(=O)C(C)Sc1nc(-c2cc(OCCN3CCC(F)(F)C3)c(OC)cc2Cl)c2c(C#N)c[nH]c2n1 (stereo not drawn) [Example 88] | < 500 |
| COc1cc(Cl)c(-c2nc(SC)nc3[nH]cc(C#N)c23)cc1OCCN1CCC(F)(F)CC1 [Example 64] | < 500 |
| CCN(CC)CCOc1nc(-c2ccc(OC)c(OC)c2)c2c(C#N)c[nH]c2n1 [Example 53] | 500 to 10000 |
| COc1cc(Cl)c(-c2nc(SC)nc3[nH]cc(C#N)c23)cc1OCCN1CCCC(F)(F)C1 [Example 66] | < 500 |
| CSc1nc(-c2cc3c(cc2Cl)OCO3)c2c(C#N)c[nH]c2n1 [Example 77] | < 500 |
| COc1cc(-c2nc(OCCN3CCCC(F)(F)C3)nc3[nH]cc(C#N)c23)c(Cl)cc1C#N [Example 62] | < 500 |
| COc1cc(Cl)c(-c2nc(SC(C)(C)CN3CCC(F)(F)C3)nc3[nH]cc(C#N)c23)cc1OC [Example 90] | < 500 |
| CCN(CC)CCOc1cc(-c2nc(OC(C)C)nc3[nH]cc(C#N)c23)c(Cl)cc1OC [Example 79] | < 500 |
| COc1cc(Cl)c(-c2nc(SC(C)(C)C)nc3[nH]cc(C#N)c23)cc1OCCN1CC[C@@H](F)C1 [Example 78] | < 500 |

Results, then the compound that gave them:

| IC50 [nM] | SMILES |
| --- | --- |
| 500 to 10000 | COc1cc(Cl)c(-c2nc(Sc3nccn3C)nc3[nH]cc(C#N)c23)cc1OC [Example 91] |
| < 500 | COc1cc(Cl)c(-c2nc(OCCN3CC[C@@H](F)C3)nc3[nH]cc(C#N)c23)cc1OC [Example 65] |
| < 500 | CCc1nc(-c2cc(OCCN(CC)CC)c(OC)cc2Cl)c2c(C#N)c[nH]c2n1 [Example 67] |
| < 500 | COc1cc(Cl)c(-c2nc(Cc3ccccc3)nc3[nH]cc(C#N)c23)cc1OC [Example 87] |
| < 500 | COc1cc(Cl)c(-c2nc(Sc3ccccc3)nc3[nH]cc(C#N)c23)cc1OC [Example 84] |
| < 500 | COc1cc(Cl)c(-c2nc(SC(C)CN3CCC(F)(F)C3)nc3[nH]cc(C#N)c23)cc1OC (stereo not drawn) [Example 83] |
| 500 to 10000 | CSc1nc(-c2cc(OCc3ccccc3)c(Cl)cc2Cl)c2c(C#N)c[nH]c2n1 [Example 54] |
| < 500 | COc1cc(Cl)c(-c2nc(OCCN3CCC(F)CC3)nc3[nH]cc(C#N)c23)cc1OC [Example 71] |
| < 500 | COc1cc(Cl)c(-c2nc(OCCCN3CCOCC3)nc3[nH]cc(C#N)c23)cc1OC [Example 60] |
| < 500 | CCN(CC)CCOc1nc(-c2cc(OC)c(OC)cc2Cl)c2c(C#N)c[nH]c2n1 [Example 56] |
| < 500 | COc1cc(Cl)c(-c2nc(OCCCN3CCCC3=O)nc3[nH]cc(C#N)c23)cc1OC [Example 57] |
| < 500 | COc1cc(Cl)c(-c2nc(Oc3ccccc3)nc3[nH]cc(C#N)c23)cc1OC [Example 86] |
| 500 to 10000 | CCN(CC)CCNc1nc(-c2cc(OC)c(OC)cc2Cl)c2c(C#N)c[nH]c2n1 [Example 69] |

Same assay, conditions: competitive displacement of fluorescein-labelled probe from human full-length HSP90; activity range; read-out: activity in the fluorescence polarization assay

| SMILES | IC50 [nM] |
| --- | --- |
| CSc1nc(-c2ccc(C)cc2C)c2c(C#N)c[nH]c2n1 [Example 1, 4-(2,4-dimethyl-phenyl)-2-methylsulfanyl-7H-pyrrolo[2,3-d]pyrimidine-5-carbonitrile] | < 500 |
| CSc1nc(-c2ccc(C#N)cc2)c2c(C#N)c[nH]c2n1 [Example 3, 4-(4-cyano-phenyl)-2-methylsulfanyl-7H-pyrrolo[2,3-d]pyrimidine-5-carbonitrile] | < 500 |
| Cc1cc(F)ccc1-c1nc(OCCN2CCCC2=O)nc2[nH]cc(C#N)c12 [Example 15, 4-(4-Fluoro-2-methyl-phenyl)-2-[2-(2-oxo-pyrrolidin-1-yl)-ethoxy]-7H-pyrrolo[2,3-d]pyrimidine-5-carbonitrile] | 500 to 10000 |
| CCN(CC)CCOc1cc(-c2nc(SC(C)C)nc3[nH]cc(C#N)c23)c(Cl)cc1OC [Example 45, 4-[2-Chloro-5-(2-diethylamino-ethoxy)-4-methoxy-phenyl]-2-isopropylsulfanyl-7H-pyrrolo[2,3-d]pyrimidine-5-carbonitrile] | < 500 |
| CCN(CC)CCSc1nc(-c2cc(OC)c(Cl)cc2Cl)c2c(C#N)c[nH]c2n1 [Example 23, 4-(2,4-Dichloro-5-methoxy-phenyl)-2-(2-diethylamino-ethylsulfanyl)-7H-pyrrolo[2,3-d]pyrimidine-5-carbonitrile] | < 500 |
| Cc1cc(F)ccc1-c1nc(OCCN2CCOCC2)nc2[nH]cc(C#N)c12 [Example 14, 4-(4-Fluoro-2-methyl-phenyl)-2-(2-morpholin-4-yl-ethoxy)-7H-pyrrolo[2,3-d]pyrimidine-5-carbonitrile] | 500 to 10000 |
| CCc1nc(-c2ccc(F)cc2C)c2c(C#N)c[nH]c2n1 [Example 18, 2-Ethyl-4-(4-fluoro-2-methyl-phenyl)-7H-pyrrolo[2,3-d]pyrimidine-5-carbonitrile] | 500 to 10000 |
| CSc1nc(-c2cc(OCCN3CCCC3)c(Cl)cc2Cl)c2c(C#N)c[nH]c2n1 [Example 26, 4-[2,4-Dichloro-5-(2-pyrrolidin-1-yl-ethoxy)-phenyl]-2-methylsulfanyl-7H-pyrrolo[2,3-d]pyrimidine-5-carbonitrile] | < 500 |
| Cc1ccc(-c2nc(Cl)nc3[nH]cc(C#N)c23)c(C)c1 [Example 8, 2-Chloro-4-(2,4-dimethyl-phenyl)-7H-pyrrolo[2,3-d]pyrimidine-5-carbonitrile] | < 500 |
| CSc1nc(-c2ccc(F)cc2C)c2c(C#N)c[nH]c2n1 [Example 4, 4-(2-methyl-4-fluoro-phenyl)-2-methylsulfanyl-7H-pyrrolo[2,3-d]pyrimidine-5-carbonitrile] | < 500 |
| COc1ccc(-c2nc(OCCN3CCC(F)(F)C3)nc3[nH]cc(C#N)c23)cc1OC [Example 33, 2-[2-(3,3-Difluoro-pyrrolidin-1-yl)-ethoxy]-4-(3,4-dimethoxy-phenyl)-7H-pyrrolo[2,3-d]pyrimidine-5-carbonitrile] | 500 to 10000 |
| CCOC(=O)CSc1nc(-c2cc(OCCN3CCC(F)(F)C3)c(OC)cc2Cl)c2c(C#N)c[nH]c2n1 [Example 49, (4-{2-Chloro-5-[2-(3,3-difluoro-pyrrolidin-1-yl)-ethoxy]-4-methoxy-phenyl}-5-cyano-7H-pyrrolo[2,3-d]pyrimidin-2-ylsulfanyl)-acetic Acid Ethyl Ester] | < 500 |
| Cc1cc(F)ccc1-c1nc(OCCN2CCCC2)nc2[nH]cc(C#N)c12 [Example 13, 4-(4-Fluoro-2-methyl-phenyl)-2-(2-pyrrolidin-1-yl-ethoxy)-7H-pyrrolo[2,3-d]pyrimidine-5-carbonitrile] | > 10000 |
| CSc1nc(-c2ccc(Cl)cc2Cl)c2c(C#N)c[nH]c2n1 [Example 41, 4-(Dichloro-phenyl)-2-methylsulfanyl-7H-pyrrolo[2,3-d]pyrimidine-5-carbonitrile] | < 500 |
| CCN(CC)CCOc1cc(-c2nc(SC)nc3[nH]cc(C#N)c23)c(Cl)cc1Cl [Example 27, 4-[2,4-Dichloro-5-(2-diethylamino-ethoxy)-phenyl]-2-methylsulfanyl-7H-pyrrolo[2,3-d]pyrimidine-5-carbonitrile] | < 500 |
| CSc1nc(-c2ccc(C)cc2C)c2c(C3CC3)c[nH]c2n1 [Example 11, 5-Cyclopropyl-4-(2,4-dimethyl-phenyl)-2-methylsulfanyl-7H-pyrrolo[2,3-d]pyrimidine] | > 10000 |
| COc1cc(Cl)c(-c2nc(SCC(=O)O)nc3[nH]cc(C#N)c23)cc1OCCN1CCC(F)(F)C1 [Example 50, (4-{2-Chloro-5-[2-(3,3-difluoro-pyrrolidin-1-yl)-ethoxy]-4-methoxy-phenyl}-5-cyano-7H-pyrrolo[2,3-d]pyrimidin-2-ylsulfanyl)-acetic Acid] | < 500 |
| Cc1ccc(-c2ncnc3[nH]cc(C(N)=O)c23)c(C)c1 [Example 39, 4-(2,4-Dimethyl-phenyl)-7H-pyrrolo[2,3-d]pyrimidine-5-carboxylic Acid Amide] | > 10000 |

The next lines start with the values.

| IC50 [nM] | SMILES |
| --- | --- |
| < 500 | COc1cc(-c2nc(SC)nc3[nH]cc(C#N)c23)c(Cl)cc1Cl [Example 22, 4-(2,4-Dichloro-5-methoxy-phenyl)-2-methylsulfanyl-7H-pyrrolo[2,3-d]pyrimidine-5-carbonitrile] |
| < 500 | COc1cc(Cl)c(-c2nc(OCCN3CC[C@H](F)C3)nc3[nH]cc(C#N)c23)cc1OC [Example 35] |
| < 500 | COc1cc(Cl)c(-c2nc(SC)nc3[nH]cc(C#N)c23)cc1OC [Example 29, 4-(2-Chloro-4,5-dimethoxy-phenyl)-2-methylsulfanyl-7H-pyrrolo[2,3-d]pyrimidine-5-carbonitrile] |
| < 500 | COc1cc(-c2nc(SC)nc3[nH]cc(C#N)c23)c(Cl)cc1C#N [Example 42, 4-(2-Chloro-4-cyano-5-methoxy)-2-methylsulfanyl-7H-pyrrolo[2,3-d]pyrimidine-5-carbonitrile] |
| 500 to 10000 | CCN(CC)CC[S+]([O-])c1nc(-c2cc(OC)c(OC)cc2Cl)c2c(C#N)c[nH]c2n1 (stereo not drawn) [Example 46, 4-(2-Chloro-4,5-dimethoxy-phenyl)-2-(2-diethylamino-ethanesulfinyl)-7H-pyrrolo[2,3-d]pyrimidine-5-carbonitrile] |
